Test [1] concerns Mouse B16 F10 melanoma cells. The test is described as follows: Direct adhesion assay: melanoma cells adhering to ligand-coated wells. It is filed as cell-based. The settings on record: for Adhesion as % Thrombospondin: absorbed compound 2 μg per well, B16 F10 melanoma cells, 1 hour at 37° C., cell protein by BCA, absorbance 562 nm; for adhesive properties (in words): melanoma cell adhesion to coated peptide. The method, then: (§1) It is believed that thrombospondin acts in metastasis through its adhesive properties. An assay was developed, generally in accordance with the disclosure of Tuszynski et al. (Anal. Bio. (1990) 184:189-91) which evaluates the ability of melanoma cells to adhere to the thrombospondin fragments or analogs of the invention. In this assay, wells of a 96-well microtiter dish (Costar, Cambridge, Mass.) were incubated for two to three hours with 50 μl of a 40 μg/ml solution of various ligands in 20 mM NaCl, pH 7.3. Thrombospondin (purified by the method of Tuszynski et al., J. Biol. Chem. (1985) 260:12240-5), fibronectin (Sigma Chemical Co., Missouri) served as the positive control. Bovine serum albumin (BSA) (Sigma Chemical Co.) served as the negative control. Thrombospondin analogs of the invention p1, p5 and p6 were synthesized as described in Examples 1 through 3. Following peptide adhesion to the microtiter dish, the wells were aspirated, treated with 200 μl phosphate buffered saline (PBS) containing 1% BSA for 1 hour and then washed three more times with 200 μl PBS.
(§2) Mouse B16 F10 melanoma cells were grown and harvested during log phase of growth using standard procedures. The harvested cells were washed two times in serum-free Dulbecco's minimum essential medium (DMEM) (Flow Laboratories) and suspended in DMEM at a final concentration of 4×10^5 cells/ml. Of the cell suspension 100 μl was added to each well of the microtiter dish containing the various ligands and the dish incubated at 37° C. in a CO2 incubator for 1 hour. Nonadherent cells were removed by aspiration and the wells washed three times with 200 μl of PBS. The total cell-associated protein was determined by dissolving the attached cells directly in the microtiter wells with 200 μl of the Pierce BCA working solution (Pierce Chem. Co. Booklet No. 23225 (1987)). The plate was covered with an adhesive mylar sheet (Flow Labs) and incubated at 60° C. for 30 minutes. Plates were allowed to cool to room temperature, cover sheets were removed, and the absorbance of each well was determined at 562 nm with a microtiter plate reader (Biotek, Burlington, Vt.)

The test system of test [2] is melanoma cells (adhesion to absorbed intact thrombospondin). The test is described as follows: Competitive assay to measure thrombospondin specific adhesion to melanoma cells. It is filed as cell-based, mouse. The settings on record: for competition with thrombospondin for adhesion to melanoma cells (in words): at this concentration (100 μg/ml). As to the method:
as §1, §2
The direct adhesion assay of Example 5 was modified to measure the ability of the peptide compounds of the invention to compete with intact thrombospondin for adhesion to melanoma cells.
In this assay, intact thrombospondin is absorbed onto microtiter dishes as described in Example 5. […]

For another test, the system named is platelets. Put plainly: Direct platelet adhesion assay. The class given is cell-based. The conditions noted are these: for adherence to platelets (in words): at this concentration (40 μg/ml coating solution); for Adherence as % Control: wells treated with 50 μl of 40 μg/ml peptide or protein, platelets incubated 30 minutes, BCA protein assay. As to the method:
(§3) The number of adherent platelets was essentially determined as previously described (Tuszynski et al., Anal. Bio. supra). Briefly, 100 μl of 5×10^8 platelets/ml washed as previously described (Tuszynski, et al., Blood 72, 109-225, 1988) were added to microtiter plates, the wells of which were treated with 50 μl of a 40 μg/ml peptide or protein solution (Hepes buffered saline, pH 7.4). Solutions were dried at room temperature after incubation in a fume hood for two hours. Wells were blocked for one hour with 1% BSA. Platelets (100 μl) were incubated in the wells for 30 minutes and non-adherent platelets were removed by aspiration. Wells were washed 3× with 200 μl of Hepes buffered saline, pH 7.4. The number of adherent platelets was determined by measuring the platelet-derived protein using the BCA protein assay.

The subject of test [3] is platelets (adhesion to absorbed thrombospondin (TSP)). Put plainly: Competitive assay, platelet adhesion to absorbed thrombospondin (TSP). It is filed as cell-based. The conditions noted are these: for % Buffer Control (platelet adhesion): absorbed protein TSP, platelets preincubated with 250 μg/ml compound. As to the method: as §3
(§4) The direct adhesion assay of Example 7 was modified to measure the ability of the peptide compounds of the invention to compete with intact thrombospindin or fibronectin for adhesion of platelets.
(§5) In this assay, thrombospondin (TSP) or fibronectin (FN) was absorbed onto microtiter dish as described in Example 7. The assay was similar to Example 7 except that before platelets were added to the microtiter dishes they were preincubated with 250 μg/ml of various ligands.

Test [4] deals with platelets (adhesion to absorbed fibronectin (FN)). The test is described as follows: Competitive assay, platelet adhesion to absorbed fibronectin (FN). It is filed as cell-based. The settings on record: for % Buffer Control (platelet adhesion): absorbed protein FN, platelets preincubated with 250 μg/ml compound. The method, then: as §3, §4, §5
Test [5] concerns platelets in platelet-rich-plasma (PRP). Put plainly: Platelet aggregation assay in platelet-rich plasma, ADP-initiated. The class given is cell-based. The conditions noted are these: 0.5 ml PRP, aggregation initiated with 1 μM ADP. The method, then:
Platelet aggregation was monitored on a single-channel aggregometer equipped to measure luminescence (Chromo-Log, Havertown, Pa.). Platelet-rich-plasma (PRP) was obtained from whole blood anti-coagulated with 0.38% Sodium Citrate by centrifugation at 150×g for 20 minutes. Peptides were added to 0.5 ml of PRP and aggregation initiated with 1 μM ADP. Buffer blanks contained diluent (water) but no peptide.

Test [6] has as its system B16 F10 mouse melanoma cells. Put plainly: Antimetastatic activity in vivo, lung tumors after i.v. melanoma cells. The settings on record: for % buffer control (number of lung tumors): i.v. with 5×10^5 B16 F10 cells, lung tumors counted after 16 days; for number of tumors versus controls (in words) / size of lung tumors (in words): treated C57 black mice, 16 days. Further details: species or system C57 black mice. From the text: Briefly, C57 black mice were intravenously injected with 5×10^5 B16 F10 mouse melanoma cells in the presence of either control buffer (Hepes buffered saline, pH 7.4), or the indicated amount of peptide compound of the invention p1, p5 or p6. After 16 days, the mice were sacrificed and the number of lung tumors counted.

Where [7] appears, read: cells preincubated with 10 μg/ml compound.
The mark [8] stands for this setting: cells preincubated with 50 μg/ml compound.
[9] abbreviates: cells preincubated 15 minutes with 100 μg/ml compound.
The mark [10] stands for this setting: cells preincubated with 200 μg/ml compound.
The mark [11] stands for this setting: cells preincubated with 300 μg/ml compound.

Several values for one entry are separate records, joined by “and”; a condition that tells them apart may be missing. Identical values can stand only once. Residues, ends and D or L forms follow the SMILES beside them.

As for `CC(C)[C@H](NC(=O)[C@H](CO)NC(=O)[C@H](CS)NC(=O)[C@@H]1CCCN1C(=O)[C@H](CO)NC(=O)[C@@H](N)Cc1c[nH]c2ccccc12)C(=O)N[C@H](C(=O)N[C@@H](CS)C(=O)NCC(=O)O)[C@@H](C)O` [Compound p1, WSPCSVTCG] (H-WSPCSVTCG-OH), in test [1], the “Adhesion as % Thrombospondin” value was found to be 98% and the “adhesive properties (in words)” value is “display adhesive properties”. For the same molecule, the “competition with thrombospondin for adhesion to melanoma cells (in words)” value (from here on “competition … to melanoma cells (in words)”) in test [2] is “able to effectively compete with thrombospondin”. In addition, the “% of buffer control (melanoma cell adhesion to thrombospondin)” value (“% of buffer control” for short) in test [2] (setting [7]) came out at 49%. Moreover, in test [2] (setting [8]), the “% of buffer control” value worked out at 40%. The “adherence to platelets (in words)” value in the test on platelets is listed as “adhere to platelets”. Also, in test [3] (250 μg/ml), the “competition with thrombospondin for platelet adhesion (in words)” value is reported as “effectively competed with thrombospondin”. The “% Buffer Control (platelet adhesion)” value in test [3] is reported as 71%. For the same molecule, in test [4] (250 μg/ml), the “competition with fibronectin for platelet adhesion (in words)” value is “did not compete with fibronectin”. Besides, the “% Buffer Control (platelet adhesion)” value in test [4] amounted to 108%. The “inhibition of platelet aggregation (in words, FIG. 1)” value (from here on “inhibition of platelet aggregation”) in test [5] was “inhibit platelet aggregation”. For the same molecule, in test [6] (30 μg/mouse), the “% buffer control (number of lung tumors)” value is 49%. For the same molecule, in test [6], the “number of tumors versus controls (in words)” value is reported as “statistically fewer tumors than controls” and the “size of lung tumors (in words)” value is “smaller in size”.
As to “Thrombospondin: large molecular weight 180 kD glycoprotein of three identical disulfide-linked polypeptide chains; purified intact protein, positive control”, the “Adhesion as % Thrombospondin” value in test [1] amounted to 100%. The “Adherence as % Control” value in the test on platelets amounted to 100%.
Take WSPCSVTCGNH2 [Compound p6]: the “Adhesion as % Thrombospondin” value in test [1] is 70%. Moreover, the “adhesive properties (in words)” value in test [1] is on record as “display adhesive properties”. Besides, the “competition … to melanoma cells (in words)” value in test [2] is “compete to a lesser degree”. For the same molecule, the “% of buffer control” value in test [2] (setting [9]) worked out at 89%; in test [2] (setting [10]) it was 74%; in test [2] (setting [11]), 74%. In addition, the “adherence to platelets (in words)” value in the test on platelets is on record as “adhere to platelets”. In addition, the “Adherence as % Control” value with platelets was determined as 38%. In addition, the “% Buffer Control (platelet adhesion)” value in test [3] is 98%; in test [4] it was 96%. In addition, the “inhibition of platelet aggregation” value in test [5] is “inhibit platelet aggregation”. The “% buffer control (number of lung tumors)” value was 91% in test [6] (30 μg/mouse), 102% in test [6] (100 μg/mouse) and 50% in test [6] (300 μg/mouse). The “number of tumors versus controls (in words)” value in test [6] was “statistically fewer tumors than controls”. Moreover, the “size of lung tumors (in words)” value in test [6] was “smaller in size”.
With fWSPCSVTCGNH2 [Compound p5], the “Adhesion as % Thrombospondin” value in test [1] was determined as 79%. Further, in test [1], the “adhesive properties (in words)” value is “display adhesive properties”. Besides, the “competition … to melanoma cells (in words)” value in test [2] was “compete to a lesser degree”. Also, the “% of buffer control” value in test [2] (setting [9]) was 62% and 108% and 83%; in test [2] (setting [7]), 99%; in test [2] (setting [8]) it was 104%; in test [2] (setting [10]) it was 89%; in test [2] (setting [11]), 83%. For the same molecule, the “Adherence as % Control” value in the test on platelets amounted to 2.1%. Moreover, the “% Buffer Control (platelet adhesion)” value in test [3] is 107%; in test [4], 109%. In addition, the “inhibition of platelet aggregation” value in test [5] was “inhibit platelet aggregation”. For the same molecule, in test [6] (30 μg/mouse), the “% buffer control (number of lung tumors)” value stood at 87%. Besides, in test [6], the “number of tumors versus controls (in words)” value was “statistically fewer tumors than controls”.
Take fibronectin: the “Adherence as % Control” value in the test on platelets came to 83%.

For the origin of these results see US5840692A, “Peptide fragments and analogs of thrombospondin” (Allegheny University of the Health Sciences, priority 1995, dated 1998).
